# Results reported in patent publication US20230121689A1, “CEPHALOSPORIN ANTIBACTERIAL COMPOUND AND PHARMACEUTICAL APPLICATION THEREOF” (priority 2020, published 2023).
# Read-outs that look alike come from different tables or passages of the source.
# Experiments:
# [1] = tested on: Carbapenem-resistant Acinetobacter baumannii (CRAB); test: Test Example 1: antibacterial activity test (MIC); format: cell-based
# Description: (§1) The test compounds were diluted in a gradient and used for an MIC assay on the test strains. The test compounds at an initial assay concentration of 32 μg/mL were diluted in a 2-fold gradient (11 concentration points in total), and two duplicate wells were set for each concentration. Additional wells without drug dosing were set as growth controls. The minimum inhibitory concentration (MIC) assay was performed with reference to the Clinical and Laboratory Standards Institute (CLSI) guidelines.
# (§2) After the frozen strains were subcultured, a single colony was picked and re-suspended in normal saline or sterile water in a tube. The bacterial suspension was vortexed and adjusted to 0.5 McF using a spectrophotometer at the wavelength of 530 nm. The bacterial solution was taken by a pipette, added to a culture medium, diluted and mixed well, and seeded to a bacterial assay plate.
# (§3) The 96-well plate was affixed with a disposable sealing film, shaken and mixed well, and visually observed using a plate reader. The minimum concentration of the compounds capable of inhibiting the growth of bacteria was defined as MIC as compared to the growth controls.
# [2] = tested on: Carbapenem-resistant Enterobacteriaceae (CRE); test: Test Example 1: antibacterial activity test (MIC); format: cell-based
# Description: as §1, §2, §3
# [3] = tested on: Carbapenem-resistant Pseudomonas aeruginosa (CRPA); test: Test Example 1: antibacterial activity test (MIC); format: cell-based
# Description: as §1, §2, §3
# [4] = tested on: Carbapenem-resistant Acinetobacter baumannii (CRAB, Acinetobacter baumannii); test: Test Example 2: antibacterial activity test (MIC); format: cell-based; settings: ID-CAMHB, read-out: ID-CAMHB, MIC
# In short: (§4)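 MIC by CLSI broth microdilution: compounds serially 2-fold diluted in sterile saline, 32–0.031 μg/mL (11 points, duplicate wells), added to bacterial suspension at 2-8×10^5 CFU/mL, with drug-free growth controls.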
# [5] = tested on: Carbapenem-resistant Enterobacteriaceae (CRE, Klebsiella pneumoniae); test: Test Example 2: antibacterial activity test (MIC); format: cell-based; settings: ID-CAMHB, read-out: ID-CAMHB, MIC
# In short: as §4
# [6] = tested on: Carbapenem-resistant Pseudomonas aeruginosa (CRPA, Pseudomonas aeruginosa); test: Test Example 2: antibacterial activity test (MIC); format: cell-based; settings: ID-CAMHB, read-out: ID-CAMHB, MIC
# In short: as §4
# [7] = tested on: Control Strain Pseudomonas aeruginosa ATCC 27853; test: Test Example 2: antibacterial activity test (MIC); format: cell-based; settings: ATCC27853, ID-CAMHB, ATCC 27853, read-out: ID-CAMHB, MIC
# In short: as §4
# [8] = tested on: Control strain Escherichia coli ATCC 25922; test: Test Example 2: antibacterial activity test (MIC); format: cell-based; settings: ATCC25922, ID-CAMHB, ATCC 25922, read-out: ID-CAMHB, MIC
# In short: as §4
# [9] = Test Example 3: pharmacokinetic study in cynomolgus monkeys; format: in vivo; settings: cynomolgus monkey, plasma, 10 mg/kg single intravenous infusion, individual animals
# Description: An appropriate amount of a test compound was weighed precisely and added to a container, and 0.9% sodium chloride injection and 0.2 M NaOH solution were added thereto in an ice bath until the test compound was completely dissolved, so that a sample solution at a concentration of 2 mg/mL was obtained followed by storage at 2-8° C. for later use.
# Species and strain: cynomolgus monkey Animal grade: general grade Animal source: Guangxi Xiongsen Primate Experimental Animal Breeding Development Co., Ltd. Number of the using of laboratory animal: SYXK (Su) 2019-0012
# 6 cynomolgus monkeys (half male and half female) were selected and randomly divided into 3 groups with 1 animal/sex in each group. The cynomolgus monkeys were administered with the test sample at a dose of 10 mg/kg by the single intravenous infusion. Blood samples were collected from each group of animals at the following time points: before administration, and 5 min, 15 min, 0.5 h, 1 h, 2 h, 4 h, 6 h, and 8 h after administration. In the test, the concentration of each test compound in the plasma of the cynomolgus monkey was detected by the LC-MS/MS method, and the lower limit of quantification of the analysis methods for the plasma samples were all 1 μg/mL. The plasma concentration data were analyzed by the non-compartmental analysis (NCA) of the analysis software for pharmacokinetic data, WinNonlin, pharmacokinetic parameters were calculated, and pharmacokinetic characteristics of the test compounds in cynomolgus monkeys after administration were investigated, with the results shown in the following table
# [10] = both sexes, cynomolgus, iv, 10 mg/kg
smiles,measurement,setting,value
"CC(C)(O/N=C(\C(=O)N[C@@H]1C(=O)N2C(C(=O)[O-])=C(C[N+]3(CCNC(=O)c4ccc(O)c(O)c4Cl)CCCC3)CS[C@H]12)c1csc(N)n1)C(=O)O [Cefiderocol, reference compound]",MIC,[1]; CRAB strain No. 100085,0.5 mg/L
same,MIC,[1]; CRAB strain No. 100333,2 mg/L
same,MIC,[1]; CRAB strain No. 110440,1.5 mg/L
same,MIC,[1]; CRAB strain No. 110477,1 mg/L
same,MIC,[1]; CRAB strain No. 110517,0.5 mg/L
same,MIC,[2]; CRE strain No. 100109,1 mg/L
same,MIC,[2]; CRE strain No. 100186,0.5 mg/L
same,MIC,[2]; CRE strain No. 110502,12 mg/L
same,MIC,[2]; CRE strain No. 110525,6 mg/L
same,MIC,[2]; CRE strain No. 311277,5 mg/L
same,MIC,[3]; CRPA strain No. 100110,0.047 mg/L
same,MIC,[3]; CRPA strain No. 110163,1 mg/L
same,MIC,[3]; CRPA strain No. 110224,0.75 mg/L
same,MIC,[3]; CRPA strain No. 110358,1 mg/L
same,MIC,[3]; CRPA strain No. 110390,0.5 mg/L
same,MIC,"[4]; FDA-CDC AR-BANK #0036 (strB, OXA-65, OXA-24, strA, sul2)",0.25 mg/L
same,MIC,"[4]; FDA-CDC AR-BANK #0052 (OXA-58, OXA-100, sul2)",0.0625 mg/L
same,MIC,"[4]; FDA-CDC AR-BANK #0063 (OXA-23, OXA-65, OXA-24, sul2)",8 mg/L
same,MIC,"[4]; FDA-CDC AR-BANK #0070 (OXA-58, OXA-100, sul2)",0.125 mg/L
same,MIC,"[4]; FDA-CDC AR-BANK #0101 (strB, OXA-65, OXA-24, strA, sul2)",1 mg/L
same,MIC,[5]; FDA-CDC AR-BANK #0361 (TEM-1; SHV-12; KPC-2),2 mg/L
same,MIC,[5]; FDA-CDC AR-BANK #0362 (TEM-1; SHV-11; KPC-2),0.5 mg/L
same,MIC,[5]; FDA-CDC AR-BANK #0363 (TEM-1; SHV-12; KPC-2),0.25 mg/L
same,MIC,"[5]; FDA-CDC AR-BANK #0438 (aph(3′)-Ia, dfrA12, KPC-3, OmpK35, oqxA, oqxB, SHV-11)",2 mg/L
same,MIC,"[5]; FDA-CDC AR-BANK #0453 (KPC-3, OmpK35, oqxA, oqxB, SHV-11, TEM-1B)",1 mg/L
same,MIC,"[6]; FDA-CDC AR-BANK #0439 (aac(6′)-Il, aadA1b, BCR1, IMP-18, OXA-50)",0.25 mg/L
same,MIC,[6]; FDA-CDC AR-BANK #0441 (KPC-2),1 mg/L
same,MIC,"[6]; FDA-CDC AR-BANK #0444 (aac(6′)-Il, dfrB5, OXA-4, tet(G), VIM-2)",2 mg/L
same,MIC,"[6]; FDA-CDC AR-BANK #0457 (aadA6, VIM-2)",0.125 mg/L
same,MIC,[7],0.0625 mg/L
same,MIC,[8],0.0625 mg/L
same,AUC(0-inf),[9]; [10],32.4 µg·h/mL
same,AUC(0-t),[9]; [10],26.2 µg·h/mL
same,clearance,[9]; [10],0.309 L/h/kg
same,half-life,[9]; [10],51.6 min
same,Cmax,"[9]; both sexes, cynomolgus, iv, 10 mg/kg, read-out: Cmax",30.5 µg/mL
same,MRT,"[9]; both sexes, cynomolgus, iv, 10 mg/kg, read-out: MRT",42 min
same,Vd,"[9]; both sexes, cynomolgus, iv, 10 mg/kg, read-out: Vd",0.381 L/kg
same,Tmax,[9]; both sexes,4.8 min
same,AUC last,[9]; 10 mg/kg,23.94 µg·h/mL
same,AUCinf,[9]; 10 mg/kg,28.35 µg·h/mL
same,CL,[9]; 10 mg/kg,0.35276 L/h/kg
same,Cmax,[9]; 10 mg/kg,24.33 µg/mL
same,Vd,[9]; 10 mg/kg,0.37963 L/kg
same,t1/2,[9]; 10 mg/kg,45 min
